Where two headings read alike, the source gives them in different places. Marks after values point to notes of the source that are not given here.
Legend:
CYP1A2 [1] = molecular target: T1, CYP1A2 (Homo sapiens, UniProt P05177); conditions: Table 4; Yu et al.; cited from earlier work
T1 sequence (P05177 1-516): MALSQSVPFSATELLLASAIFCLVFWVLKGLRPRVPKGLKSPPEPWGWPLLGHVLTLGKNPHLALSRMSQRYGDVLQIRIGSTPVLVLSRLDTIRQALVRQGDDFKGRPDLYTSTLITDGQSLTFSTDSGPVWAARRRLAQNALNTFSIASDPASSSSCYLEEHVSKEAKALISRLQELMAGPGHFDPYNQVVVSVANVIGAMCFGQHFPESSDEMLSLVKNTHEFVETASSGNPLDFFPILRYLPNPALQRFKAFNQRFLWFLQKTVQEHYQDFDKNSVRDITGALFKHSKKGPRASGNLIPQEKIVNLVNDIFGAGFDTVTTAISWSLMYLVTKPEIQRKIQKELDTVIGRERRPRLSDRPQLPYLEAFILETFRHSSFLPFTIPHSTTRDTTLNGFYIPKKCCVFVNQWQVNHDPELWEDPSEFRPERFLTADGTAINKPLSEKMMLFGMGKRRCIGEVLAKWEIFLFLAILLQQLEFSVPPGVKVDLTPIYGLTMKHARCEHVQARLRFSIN

CYP2D6 [2] = molecular target: T2, CYP2D6 (Homo sapiens, UniProt P10635); conditions: Table 4; Yu et al.; cited from earlier work
T2 sequence (P10635 whole entry): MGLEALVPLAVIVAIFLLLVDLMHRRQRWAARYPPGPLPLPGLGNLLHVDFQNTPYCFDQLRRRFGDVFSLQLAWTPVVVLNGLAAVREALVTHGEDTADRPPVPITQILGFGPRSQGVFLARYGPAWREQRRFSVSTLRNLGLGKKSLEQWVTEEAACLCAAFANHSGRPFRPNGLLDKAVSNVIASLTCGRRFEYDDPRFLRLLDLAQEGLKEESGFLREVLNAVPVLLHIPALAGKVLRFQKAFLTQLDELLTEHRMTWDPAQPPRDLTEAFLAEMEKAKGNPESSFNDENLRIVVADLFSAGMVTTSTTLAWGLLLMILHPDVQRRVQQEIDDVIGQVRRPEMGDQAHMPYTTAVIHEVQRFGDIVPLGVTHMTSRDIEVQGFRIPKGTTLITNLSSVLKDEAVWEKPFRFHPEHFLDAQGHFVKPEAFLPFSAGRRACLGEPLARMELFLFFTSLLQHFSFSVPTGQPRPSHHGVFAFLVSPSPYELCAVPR

[3] = Table 4; Yu et al.; cited from earlier work
[4] = cited from earlier work
[5] = rat; Table 4; Yu et al.; cited from earlier work
CYP3A4 [6] = molecular target: T3, CYP3A4 (Homo sapiens, UniProt P08684); conditions: Table 4; Yu et al.; cited from earlier work
T3 sequence (P08684 whole entry): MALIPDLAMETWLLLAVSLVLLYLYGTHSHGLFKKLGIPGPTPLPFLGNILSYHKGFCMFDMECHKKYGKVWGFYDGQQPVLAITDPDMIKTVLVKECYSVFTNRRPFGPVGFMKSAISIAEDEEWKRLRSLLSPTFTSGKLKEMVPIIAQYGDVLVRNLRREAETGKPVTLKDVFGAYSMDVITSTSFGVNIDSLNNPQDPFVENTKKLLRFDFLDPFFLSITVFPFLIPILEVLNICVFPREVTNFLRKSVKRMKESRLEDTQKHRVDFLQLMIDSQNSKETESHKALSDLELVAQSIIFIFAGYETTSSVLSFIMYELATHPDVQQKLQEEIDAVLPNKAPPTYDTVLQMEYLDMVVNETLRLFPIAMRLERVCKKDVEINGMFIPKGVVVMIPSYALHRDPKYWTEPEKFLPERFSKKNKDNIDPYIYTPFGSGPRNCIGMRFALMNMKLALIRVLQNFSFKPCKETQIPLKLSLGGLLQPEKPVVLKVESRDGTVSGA

[7] = human, cited from earlier work
CYP2C9 [8] = molecular target: T4, CYP2C9 (Homo sapiens, UniProt P11712); conditions: Table 4; Yu et al.; cited from earlier work
T4 sequence (P11712 whole entry): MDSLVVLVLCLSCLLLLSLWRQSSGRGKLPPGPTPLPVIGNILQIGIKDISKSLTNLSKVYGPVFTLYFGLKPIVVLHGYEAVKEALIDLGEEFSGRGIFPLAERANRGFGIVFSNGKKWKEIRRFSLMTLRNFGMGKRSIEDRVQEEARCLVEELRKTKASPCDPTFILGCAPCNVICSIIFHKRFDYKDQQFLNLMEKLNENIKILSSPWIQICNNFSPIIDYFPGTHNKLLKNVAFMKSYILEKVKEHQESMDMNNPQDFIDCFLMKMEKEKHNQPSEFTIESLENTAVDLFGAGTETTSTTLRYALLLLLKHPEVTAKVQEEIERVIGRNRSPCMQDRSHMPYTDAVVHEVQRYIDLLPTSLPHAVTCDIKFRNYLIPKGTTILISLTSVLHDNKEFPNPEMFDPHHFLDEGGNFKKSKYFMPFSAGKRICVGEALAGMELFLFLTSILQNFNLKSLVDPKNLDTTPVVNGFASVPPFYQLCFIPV

[9] = mouse, cited from earlier work
[10] = mouse, cited from earlier work; remark: listed apart in the source
[11] = human, cited from earlier work; remark: listed apart in the source
CYP2C19 [12] = molecular target: T5, CYP2C19 (Homo sapiens, UniProt P33261); conditions: Table 4; Yu et al.; cited from earlier work
T5 sequence (P33261 whole entry): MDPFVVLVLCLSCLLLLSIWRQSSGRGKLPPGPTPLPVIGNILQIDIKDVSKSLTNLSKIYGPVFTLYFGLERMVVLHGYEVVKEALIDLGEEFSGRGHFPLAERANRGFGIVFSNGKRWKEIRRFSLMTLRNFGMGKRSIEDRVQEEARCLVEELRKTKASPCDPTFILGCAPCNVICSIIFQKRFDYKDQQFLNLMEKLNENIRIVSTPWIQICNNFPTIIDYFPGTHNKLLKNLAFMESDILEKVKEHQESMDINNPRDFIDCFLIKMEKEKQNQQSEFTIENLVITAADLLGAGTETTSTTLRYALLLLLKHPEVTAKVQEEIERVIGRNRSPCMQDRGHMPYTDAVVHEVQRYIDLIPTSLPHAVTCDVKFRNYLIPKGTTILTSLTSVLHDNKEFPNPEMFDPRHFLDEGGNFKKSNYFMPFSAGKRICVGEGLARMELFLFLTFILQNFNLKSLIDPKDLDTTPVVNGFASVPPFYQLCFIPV

[13] = i.v. administration in rat, 0.5 mg/kg; Yu et al.; cited from earlier work
[14] = Table 4; Yu et al.; cited from earlier work; remark: listed apart in the source
[15] = rat; Table 4; Yu et al.; cited from earlier work; remark: listed apart in the source
hERG ion channel = hERG ion channel (Homo sapiens, UniProt Q12809); experiment: hERG ion channel block, patch clamp assay
Chain of hERG ion channel (Q12809 whole entry): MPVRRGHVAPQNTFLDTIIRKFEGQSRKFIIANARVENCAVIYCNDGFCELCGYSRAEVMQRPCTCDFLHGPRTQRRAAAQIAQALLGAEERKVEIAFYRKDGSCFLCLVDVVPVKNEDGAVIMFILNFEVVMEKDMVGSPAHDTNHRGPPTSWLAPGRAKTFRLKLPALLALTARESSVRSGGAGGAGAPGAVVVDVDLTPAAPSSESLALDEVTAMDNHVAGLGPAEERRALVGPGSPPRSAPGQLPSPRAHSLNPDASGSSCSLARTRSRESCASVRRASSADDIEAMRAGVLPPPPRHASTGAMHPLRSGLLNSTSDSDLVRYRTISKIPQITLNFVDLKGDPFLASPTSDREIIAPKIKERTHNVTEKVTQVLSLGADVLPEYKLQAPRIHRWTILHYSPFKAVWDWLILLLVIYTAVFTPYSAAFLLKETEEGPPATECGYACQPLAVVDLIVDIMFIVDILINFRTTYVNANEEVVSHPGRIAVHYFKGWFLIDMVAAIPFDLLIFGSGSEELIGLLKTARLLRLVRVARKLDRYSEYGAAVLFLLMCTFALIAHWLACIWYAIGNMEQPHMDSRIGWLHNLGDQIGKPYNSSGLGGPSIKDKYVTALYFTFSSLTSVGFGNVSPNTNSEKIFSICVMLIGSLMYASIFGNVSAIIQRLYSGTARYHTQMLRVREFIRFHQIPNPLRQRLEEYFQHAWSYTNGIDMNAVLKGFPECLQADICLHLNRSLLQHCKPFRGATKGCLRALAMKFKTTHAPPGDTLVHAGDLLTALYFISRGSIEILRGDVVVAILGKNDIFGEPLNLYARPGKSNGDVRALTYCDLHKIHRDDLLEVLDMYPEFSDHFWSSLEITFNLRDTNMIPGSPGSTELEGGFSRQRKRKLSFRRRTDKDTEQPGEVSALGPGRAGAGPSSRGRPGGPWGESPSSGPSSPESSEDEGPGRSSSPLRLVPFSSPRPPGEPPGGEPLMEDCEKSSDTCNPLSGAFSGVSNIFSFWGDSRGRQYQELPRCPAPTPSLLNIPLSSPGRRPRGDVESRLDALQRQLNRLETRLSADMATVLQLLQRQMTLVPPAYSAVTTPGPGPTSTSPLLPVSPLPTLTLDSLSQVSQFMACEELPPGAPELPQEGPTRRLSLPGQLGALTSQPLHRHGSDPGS

[16] = Microsomal stability, human
CYP2C19 [17] = molecular target: T5, CYP2C19; experiment: CYP2C19 inhibition; type: in vitro ADME; conditions: Table 7
Plasma stability, mouse = conditions: Table 7
[18] = Aqueous solubility, pION method
[19] = system: CCI-induced mechano-allodynia; experiment: Chronic constriction injury (CCI) mouse model of neuropathic pain; conditions: 10 μmol/kg, i.p.
[20] = Plasma protein binding, rat; type: in vitro ADME
[21] = HPLC-based lipophilicity (Log D7.4)
[22] = Stability in simulated intestinal fluid; conditions: Table 7
Plasma stability, rat = conditions: Table 7
[23] = Plasma protein binding, mouse; type: in vitro ADME
[24] = Microsomal stability, rat; type: in vitro ADME; conditions: Table 7
mP2Y14R [25] = molecular target: T6, mP2Y14R (Mus musculus, UniProt Q9ESG6); experiment: cell-based; conditions: read-out: mP2Y14R, IC50; Table 6; whole mP2Y14R-HEK cells, 200 nM of 3, mean ± SEM, n = 3-6
T6 sequence (Q9ESG6 1-338): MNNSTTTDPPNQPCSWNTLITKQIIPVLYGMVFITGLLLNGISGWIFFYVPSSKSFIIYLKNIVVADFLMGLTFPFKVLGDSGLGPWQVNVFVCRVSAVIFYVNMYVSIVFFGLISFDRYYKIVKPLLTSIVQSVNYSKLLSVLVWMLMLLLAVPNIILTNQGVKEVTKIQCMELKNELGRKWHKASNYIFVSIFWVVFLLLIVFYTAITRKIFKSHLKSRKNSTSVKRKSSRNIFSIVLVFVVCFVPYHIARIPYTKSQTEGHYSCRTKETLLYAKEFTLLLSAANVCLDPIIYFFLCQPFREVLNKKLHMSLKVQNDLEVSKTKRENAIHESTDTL
Excerpt: Desirably, receptor affinity is maintained across species, facilitating performance in in vivo preclinical testing in small animals, with the mouse being the most commonly used species in initial evaluation.

[26] = Microsomal stability, mouse; type: in vitro ADME; conditions: Table 7
CYP2C9 [27] = molecular target: T4, CYP2C9; experiment: CYP2C9 inhibition
hP2Y14R [28] = molecular target: T7, hP2Y14R (Homo sapiens, UniProt Q15391); experiment: Inhibition of fluorescent antagonist binding in whole hP2Y14R-expressing CHO cells (flow cytometry)
T7 construct: expressed in transfected cells; host or cells: CHO cells
T7 sequence (Q15391 1-338): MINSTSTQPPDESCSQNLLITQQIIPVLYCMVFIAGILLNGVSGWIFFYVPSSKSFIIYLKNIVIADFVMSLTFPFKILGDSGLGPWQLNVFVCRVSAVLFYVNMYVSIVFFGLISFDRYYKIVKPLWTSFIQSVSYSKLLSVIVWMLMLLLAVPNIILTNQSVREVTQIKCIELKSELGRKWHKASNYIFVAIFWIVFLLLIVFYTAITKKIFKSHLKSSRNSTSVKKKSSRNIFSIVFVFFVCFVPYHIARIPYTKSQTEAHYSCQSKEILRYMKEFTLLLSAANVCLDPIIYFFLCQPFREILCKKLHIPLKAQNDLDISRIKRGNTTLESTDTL

CYP2D6 [29] = molecular target: T2, CYP2D6; experiment: CYP2D6 inhibition; type: in vitro ADME; conditions: Table 7
hERG = hERG (Homo sapiens, UniProt Q12809); experiment: hERG inhibition, fluorescent method; type: binding; conditions: Table 7
Chain of hERG (Q12809 whole entry): as the sequence (Q12809 whole entry) above

[30] = Plasma protein binding, human; type: in vitro ADME
CYP3A4 [31] = molecular target: T3, CYP3A4; experiment: CYP3A4 inhibition; type: in vitro ADME; conditions: Table 7
CYP1A2 [32] = molecular target: T1, CYP1A2; experiment: CYP1A2 inhibition; type: in vitro ADME; conditions: Table 7
[33] = In vivo half-life by administration mode (Table 7)
[34] = Stability in simulated gastric fluid; conditions: Table 7
hP2Y14R [35] = molecular target: T7, hP2Y14R; conditions: Table 2; data from Jung et al. and Mufti et al.; cited from earlier work
mP2Y14R [36] = molecular target: T6, mP2Y14R; parameters: expressed in transfected cells; conditions: Table 2; data from Jung et al. and Mufti et al.; cited from earlier work
[37] = Table 6, fluorescent hP2Y14R antagonist (3), read-out: hP2Y14R, IC50
[38] = first value of the cell (mode not given; by the column of 4: i.p.)
[39] = second value of the cell (mode not given; by the column of 4: i.v., 0.5 mg/kg)

SMILES | IC50 (CYP2C19 [17]) [µM] | Plasma stability (% remaining at 120 min) (Plasma stability, mouse) [%] | Solubility (ug/mL) pH 4 [18] [ug/mL] | Solubility (ug/mL) pH 7.4 [18] [ug/mL] | Rat, % bound (±SD) [20] [%] | Simulated intestinal fluid (% remaining at 120 min) [22] [%] | Plasma stability (% remaining at 120 min) (Plasma stability, rat) [%] | Mouse, % bound (±SD) [23] [%] | Microsomal stability (t1/2, min) [24] [min] | IC50 (mP2Y14R [25]) [µM] | Microsomal stability (t1/2, min) [26] [min] | IC50 (CYP2C9 [27]) [µM] | IC50 (hP2Y14R [28]; [37]) [µM] | IC50 (CYP2D6 [29]) [µM] | IC50 (hERG) [µM] | Human, % bound (±SD) [30] [%] | IC50 (CYP3A4 [31]) [µM] | IC50 (CYP1A2 [32]) [µM] | t1/2 (h), administration mode [33, 38] [h] | t1/2 (h), administration mode [33, 39] [h] | also measured
NC(=O)c1ccc(-c2cc(C(=O)O)cc(-n3cc(-c4ccc(C(F)(F)F)cc4)nn3)c2)cc1 [Compound 5] | – | – | – | – | – | – | – | – | – | – | – | – | – | – | – | – | – | – | – | – | IC50 (CYP1A2 [1]): > 30 µM; IC50 (CYP2D6 [2]): > 30 µM; Simulated gastric fluid (t1/2, min) [3]: >240 min; aqueous solubility (pH 7.4, μg/mL) ([4]; mean ± SD, Table 4, Yu et al.): 138 ± 4 μg/mL; Plasma stability (t1/2, min) [5]: >240 (h); >240 (r); min; IC50 (CYP3A4 [6]): > 30 µM; Plasma stability (t1/2, min) ([7]; Table 4, Yu et al.): >240 (h); >240 (r); min; IC50 (CYP2C9 [8]): > 30 µM; Plasma stability (t1/2, min) ([9]; Table 4, Yu et al.): >240 (m) min; Microsomal stability (t1/2, min) ([10]; Table 4, Yu et al.): 145 min; Microsomal stability (t1/2, min) ([11]; Table 4, Yu et al.): 145 (h) min; IC50 (CYP2C19 [12]): > 30 µM; t1/2 [13]: 0.20 h; Simulated intestinal fluid (t1/2, min) [14]: >240 min; Microsomal stability (t1/2, min) [15]: 108 min
O=C(O)c1cc(-c2ccc([C@H]3C[C@H]4C[C@@H]3CN4)cc2)c2ccc(-c3ccc(C(F)(F)F)cc3)cc2c1 [Compound 114, 4-(4-((1S,4S,5S)-2-Azabicyclo[2.2.1]heptan-5-yl)phenyl)-7-(4-(trifluoromethyl)phenyl)-2-naphthoic acid] | > 30 | 100 | 1.22 ± 0.05 | 0.77 ± 0.21 | 99.79 ± 0.02 | 99.1 | 82.8 | 99.76 ± 0.03 | 91.0 | 0.0339 ± 0.0046 | 243 | > 30 | 0.00311 ± 0.00062 | > 30 | > 30 | 87.98 ± 10.29 | > 30 | > 30 | 8.94 | 7.24 | IC50 (hERG ion channel): > 30 µM; Microsomal stability (t1/2, min) ([16]; Table 7): 280 (h) min; side effects [19]: No obvious side effects were observed; reversal of mechano-allodynia (figure legend) ([19]; day 7 post-injury): reversed the established mechano-allodynia; chromatographic logD ([21]; pH 7.4): 1.92 ± 0.09; Simulated gastric fluid (% remaining at 120 min) ([34]; aqueous acid stability determined by NMR): 100^e %
O=C(O)c1cc(-c2ccc(C34CCN(CC3)CC4)cc2)c2ccc(-c3ccc(C(F)(F)F)cc3)cc2c1 [Compound 4] | – | – | 1.50 ± 0.04 | 0.55 ± 0.02 | – | – | – | – | – | – | – | – | – | – | – | – | – | – | – | – | aqueous solubility (pH 4.0, μg/mL) ([4]; pH 4.0, Table 7, Jung et al. 2020): 14.3 ± 0.5 μg/mL; aqueous solubility (pH 7.4, μg/mL) ([4]; Table 7, Jung et al. 2020): 0.44 ± 0.06 μg/mL; IC50 (hP2Y14R [35]): 0.169 ± 0.042 µM; Plasma stability (% remaining at 120 min) ([7]; Table 7, Jung et al. 2020): 100%; Log D7.4 ([21]; calculated from retention factor difference between ligands and 1 (k = 3.41)): 4.18 ± 0.85^f; IC50 (mP2Y14R [36]): 0.384 ± 0.088 µM; Plasma stability (% remaining at 120 min) ([9]; Table 7, Jung et al. 2020): 100 (m) %; Microsomal stability (t1/2, min) ([10]; Table 7, Jung et al. 2020): 67.2 min; Microsomal stability (t1/2, min) ([11]; Table 7, Jung et al. 2020): 8 >240 (h) min; IC50 (hP2Y14R [28]; Example 5 table, whole cell fluorescent binding assay, read-out: IC50): 0.02 ± 0.0044 µM; IC50 (hP2Y14R [28]; Table 2, whole hP2Y14R-CHO cells, 20 nM fluorescent antagonist 3, mean+SEM, n = 3-6, read-out: IC50): 0.02 ± 0.0044 µM
O=C(O)c1cc(-c2ccc([C@@H]3C[C@@H]4C[C@H]3NC4=O)cc2)c2ccc(-c3ccc(C(F)(F)F)cc3)cc2c1 [Compound 121, 4-(4-((1R,4R,6S)-3-Oxo-2-azabicyclo[2.2.1]heptan-6-yl)phenyl)-7-(4-(trifluoromethyl)phenyl)-2-naphthoic acid] | > 30 | 74.1 | – | – | 96.18 ± 0.32 | 100 | 74.7 | 99.74 ± 0.04 | 89.4 | 0.0429 ± 0.007 | > 1000 | > 30 | 0.0373 ± 0.006 | > 30 | > 30 | 98.89 ± 0.50 | > 30 | > 30 | 4.59 | 2.11 | half-life ([16]; liver microsomes): 14.2 h; Simulated gastric fluid (% remaining at 120 min) [34]: 59.3%
